According to patent US10238688B2, “Combination therapies for bladder cancer” (GENEDIA BIOTECH CO. LTD., priority 2015, dated 2019):

Columns and labels:
SCaBER = test: MTT cell survival / IC50, SCaBER squamous carcinoma cells; type: cell-based, human; conditions: for Cell survival (%): Table S3, ng/ml: Pi 40, Pa 160, EH 250, Ci 1500, Mi 200, 1=Ci/Mi, 2=EH/Ci/Mi, 3=Pa/Ci/Mi, 4=Pi/Ci/Mi; for Single drug 4X Cell Survival (%): ng/ml: EH 1000, Ci 6000, Mi 800, Pi 160, Pa 640, Ge 20, EH/Ci/Mi regimen
Method: (§1) The clinical grade of the chemotherapeutics (NCI Dictionary of Cancer Terms) was provided by the First Affiliated Hospital of Harbin Medical University: Pirarubicin (Pi, Wanle, Shenzhen), Paclitaxel (Pa, Taiji, Sichuan), Adriamycin (Ad, Pfizer, Jiangsu), Epirubicin Hydrochloride (EH, Haizheng, Zhejiang), Hydroxycamptothecin (Hy, Lishizhen, Hubei), Cisplatin (Ci, Haosen, Jiangsu), Gemcitabine (Ge, Haosen, Jiangsu) and Mitomycin (Mi, Haizheng, Zhejiang). The drug induced cell death was determined by a thiazolyl […] (MTT, 490 nm reading) based cell proliferation assay in the cultured cells following treatment by various concentrations of drugs for 72 hours. The relative chemoresistance to each drug of all cell lines was calculated with the lowest IC50 as a reference. The overall chemoresistance of each cell line was described as “chemoresistance index”, the numerator of the total relative IC50 to all the drugs over the number of drugs to rank the overall resistance state of each cell line to the six chemotherapeutics collectively.
(§2) The relative IC50 (fold) of each drug of all nine cell lines was normalized to the lowest IC50 in the most sensitive cell line (FIG. 2G), to describe the single drug resistance of cell lines. The overall chemoresistance of each cell line, a “chemoresistance index” (the numerator of the total relative IC50 over the number of drugs) (FIG. 2G) were calculated to rank the overall resistance state of each cell line to this six chemotherapeutics.

5637 = test: MTT cell survival / IC50, 5637 cells; type: cell-based, human; conditions: for Cell survival (%) / Single drug 4X Cell Survival (%): 5637; for Cell survival (%): Table S3, ng/ml: Pi 40, Pa 160, EH 250, Ci 1500, Mi 200, 1=Ci/Mi, 2=EH/Ci/Mi, 3=Pa/Ci/Mi, 4=Pi/Ci/Mi; for Single drug 4X Cell Survival (%): ng/ml: EH 1000, Ci 6000, Mi 800, Pi 160, Pa 640, Ge 20, EH/Ci/Mi regimen; for Cell survival 72 hours / ACS (%): 5637 cells; for Cell survival 72 hours: Table 4 (A); for ACS (%): Table 4 (B)
Method: as §1, §2
(§3) Twenty six-drug combinations at the indicated doses were initially generated through a random number generator (using MATLAB MathWorks©, Natick, Mass., U.S.) (The upper half of Table 1). The cell survival (% over the not drug control) of treated cells was determined and then used for a calculation of the average cumulative cell survival (%, ACS: the sum of cell survival (%) per combination divided by the number of cell lines tested). ACS<30% was used to separate the effective from the not-effective combinations.

[1] = tested on: bladder cancer cell lines; test: Average cumulative cell survival (ACS) over the panel of cell lines tested; type: cell-based, human; conditions: for ACS (%): eight cell lines, Table S3, ng/ml: Pi 40, Pa 160, EH 250, Ci 1500, Mi 200, 1=Ci/Mi, 2=EH/Ci/Mi, 3=Pa/Ci/Mi, 4=Pi/Ci/Mi; for ACS: four-fold dosed component drugs alone: Ci 6000 ng/mL, Mi 800 ng/mL, EH 1000 ng/mL (Table S4); for ACS (%) for cancer cells: seven cancer cell lines, ng/ml: EH 1000, Ci 6000, Mi 800, Pi 160, Pa 640, Ge 20, EH/Ci/Mi regimen
Method: as §1
The “Differential Evolution” algorithm guided experimental optimization (DE) consisted of three iterative operations: generating drug combinations of experimental testing, acquiring the efficacy of the generated drug combinations with biological assays and recalculating further improved drug combinations using a feedback search algorithm. This example first tested twenty drug combinations at randomized doses. These drug combinations were generated from a random integer matrix generator, coded in MATLAB™ language. These twenty drug combinations were then experimentally tested for cancer cell cytotoxicity. The experimental data were then subjected to calculation with a DE algorithm for new drug combinations based on three major mathematical calculations: “Mutation”, “Crossover” and “Selection”. The equations for each step can be found in the main test. The equations for each step are coded in MATLAB™ language.
as §3, with “combinations. Nine of the twenty combinations tested in the 1st round of iteration fell into this category (the lower half of Table 1).” for “combinations.”

SV-HUC-1 = type: cell-based; conditions: for Single drug 4X Cell Survival (%): SV-HUC-1, ng/ml: EH 1000, Ci 6000, Mi 800, Pi 160, Pa 640, Ge 20, EH/Ci/Mi regimen; for Cell survival 72 hours / ACS (%): SV-HUC-1 cells; for Cell survival 72 hours: Table 4 (A); for ACS (%): Table 4 (B)
Method: as §1, §2

Heat Shock pathway = test: Cignal Finder dual-luciferase pathway reporter, Heat Shock; type: cell-based, human; parameters: key to Relative activity, Heat Shock reporter: firefly/renilla ratio, background (negative control) subtracted; conditions: for Relative activity, Heat Shock reporter: luc/Renluc relative to negative control reporter, single drug at 4 folds vs EH/Ci/Mi combination
Method: The pathway analysis was performed with Qiagen's Cignal Finder Pathway Reporter Array systems according to the manufacturer's instructions. The pathway-focused dual-luciferase reporter construct was a mixture of an inducible transcription factor responsive firefly luciferase reporter and constitutively expressing renilla construct. Transcriptional response element (TRE) sequence response elements to each specific transcriptional factor triggered by the different signaling pathways are positioned before the TATA box of firefly luciferase reporter gene. The extent of activity of the reporter reflects the level of activity of the particular signaling pathway. CMV controlled renilla expression vector is co-transfected into the cell as an internal control. Non-inducible reporter construct that lacks the transcriptional factor binding sequence and could not be induced by any transcription factors is used as a negative control. Cells transfected with CMV directed firefly luciferase reporter gene serve as a positive control. Briefly, cells seeded in 6-well plates were transfected with Cignal finder pathway arrays according to the manufacturer's instructions (Qiagen). Then cells were seeded onto 96-well plates. […] After 6 h of incubation with the different drugs at 37° C., cells were lysed and a dual luciferase assay (for firefly and renilla luciferase) was performed using a PromegaGloMax 20/20 illuminometer. The firefly luciferase activities were normalized over the renilla luciferase activities after background activity determined by luciferase activities of negative controls was subtracted. A triple test of cell survival under these drug doses was also performed by MTT assay following 18 h incubation at 37° C. […]

H-bc = test: MTT cell survival / IC50, H-bc cells; type: cell-based, human; conditions: for Cell survival 72 hours / ACS (%): H-bc cells; for Cell survival 72 hours: Table 4 (A); for ACS (%): Table 4 (B); for Cell survival (%) / Single drug 4X Cell Survival (%): H-bc; for Cell survival (%): Table S3, ng/ml: Pi 40, Pa 160, EH 250, Ci 1500, Mi 200, 1=Ci/Mi, 2=EH/Ci/Mi, 3=Pa/Ci/Mi, 4=Pi/Ci/Mi; for Single drug 4X Cell Survival (%): ng/ml: EH 1000, Ci 6000, Mi 800, Pi 160, Pa 640, Ge 20, EH/Ci/Mi regimen
Method: as §1, §2, §3

SMILES	Cell survival (%) (SCaBER)	Single drug 4X Cell Survival (%) (SCaBER)	Cell survival (%) 5637 [%]	Single drug 4X Cell Survival (%) 5637 [%]	Cell survival 72 hours 5637 [%]	ACS (%) 5637 [%]	ACS (%) [1] [%]	ACS [1] [%]	ACS (%) for cancer cells [1] [%]	Single drug 4X Cell Survival (%) (SV-HUC-1)	Cell survival 72 hours (SV-HUC-1) [%]	ACS (%) (SV-HUC-1)	digitalized pathway activity, Heat Shock (Heat Shock pathway; 5637 cells)	relative drug trigged pathway activity over the no-drug level, Heat Shock (Heat Shock pathway; 5637 cells) [fold]	Relative activity, Heat Shock reporter (Heat Shock pathway; 5637 cells)	relative drug trigged pathway activity over the no-drug level, Heat Shock (Heat Shock pathway; Biu87 cells) [fold]	Relative activity, Heat Shock reporter (Heat Shock pathway; Biu87 cells)	relative drug trigged pathway activity over the no-drug level, Heat Shock (Heat Shock pathway; H-bc cells) [fold]	Relative activity, Heat Shock reporter (Heat Shock pathway; H-bc cells)	digitalized pathway activity, Heat Shock (Heat Shock pathway; SV-HUC-1 cells)	also measured
N.N.[Cl][Pt][Cl] [Ci, (SP-4-2)-diamminedichloroplatinum(II)]	22.05	5.58	20.32	1.49	2.23	2.23	22.9	16.60	9.11	26.21	26.21	26.21	0 (null (0) if neither of the above holds)	0.65	9.18	1.52	2.87	1.19	16.31	0 (null (0) if neither of the above holds)	digitalized pathway activity, Heat Shock (Heat Shock pathway; H-bc cells): 0 (null (0) if neither of the above holds); relative drug trigged pathway activity over the no-drug level, Heat Shock (Heat Shock pathway; SV-HUC-1 cells): 0.93 fold; Relative activity, Heat Shock reporter (Heat Shock pathway; SV-HUC-1 cells): 36.80; digitalized pathway activity, Heat Shock (Heat Shock pathway; UM-UC-3 cells): 0 (null (0) if neither of the above holds); Relative activity, Heat Shock reporter (Heat Shock pathway; UM-UC-3 cells): 3.42; relative drug trigged pathway activity over the no-drug level, Heat Shock (Heat Shock pathway; Um-Uc-3 cells): 0.79 fold; Cell survival 72 hours (H-bc): 1.61%; ACS (%) (H-bc): 1.61%; Cell survival (%) (H-bc): 41.98%; Single drug 4X Cell Survival (%) (H-bc): 1.61%
COc1cccc2c1C(=O)c1c(O)c3c(c(O)c1C2=O)C[C@@](O)(C(=O)CO)C[C@@H]3[C@@H]1C[C@H](N)[C@@H](O)[C@H](C)O1 [EH, (8R,10S)-10-((2S,4S,5R,6S)-4-amino-5-hydroxy-6-methyltetrahydro-2H-pyran-2-yl)-6,8,11-trihydroxy-8-(2-hydroxyacetyl)-1-methoxy-7,8,9,10-tetrahydrotetracene-5,12-dione]	38.31	6.67	14.75	2.23	2.23	2.23	39.75	9.11	16.60	61.89	61.89	61.89	0 (null (0) if neither of the above holds)	1.04	14.60	1.06	2.01	0.86	3.13	0 (null (0) if neither of the above holds)	digitalized pathway activity, Heat Shock (Heat Shock pathway; Biu87 cells): 0 (null (0) if neither of the above holds); digitalized pathway activity, Heat Shock (Heat Shock pathway; H-bc cells): 0 (null (0) if neither of the above holds); relative drug trigged pathway activity over the no-drug level, Heat Shock (Heat Shock pathway; SV-HUC-1 cells): 0.91 fold; Relative activity, Heat Shock reporter (Heat Shock pathway; SV-HUC-1 cells): 36.00; digitalized pathway activity, Heat Shock (Heat Shock pathway; UM-UC-3 cells): 0 (null (0) if neither of the above holds); Relative activity, Heat Shock reporter (Heat Shock pathway; UM-UC-3 cells): 2.93; relative drug trigged pathway activity over the no-drug level, Heat Shock (Heat Shock pathway; Um-Uc-3 cells): 0.67 fold; Cell survival 72 hours (H-bc): 2.60%; ACS (%) (H-bc): 2.60%; Cell survival (%) (H-bc): 61.03%; Single drug 4X Cell Survival (%) (H-bc): 2.6%
COC12C(COC(N)=O)C3=C(C(=O)C(C)=C(N)C3=O)N1CC1NC12 (stereo not drawn) [Mi, [6-Amino-8a-methoxy-5-methyl-4,7-dioxo-1,1a,2,4,7,8,8a,8b-octahydroazireno [2′,3′:3,4]pyrrolo[1,2-a]indol-8-yl]methyl carbamate]	56.83	41.97	53.16	35.46	35.46	35.46	56.85	40.49	40.49	91.17	91.17	91.17	0 (null (0) if neither of the above holds)	1.38	19.47	4.54	8.60	0.3	1.12	0 (null (0) if neither of the above holds)	relative drug trigged pathway activity over the no-drug level, Heat Shock (Heat Shock pathway; SV-HUC-1 cells): 1.01 fold; Relative activity, Heat Shock reporter (Heat Shock pathway; SV-HUC-1 cells): 40.00; digitalized pathway activity, Heat Shock (Heat Shock pathway; UM-UC-3 cells): 0 (null (0) if neither of the above holds); Relative activity, Heat Shock reporter (Heat Shock pathway; UM-UC-3 cells): 4.03; relative drug trigged pathway activity over the no-drug level, Heat Shock (Heat Shock pathway; Um-Uc-3 cells): 0.93 fold; Cell survival 72 hours (H-bc): 81.16%; ACS (%) (H-bc): 81.16%; Cell survival (%) (H-bc): 91.67%; Single drug 4X Cell Survival (%) (H-bc): 81.16%
